Measured values taken from patent US20230330093A1, “APPLICATION OF NITROGEN-CONTAINING SATURATED HETEROCYCLIC COMPOUND” (SHANGHAI PHARMACEUTICALS HOLDING CO., LTD., priority 2020, published 2023).

How the values were obtained:
[1] = system: cynomolgus monkeys; assay: 4-week safety study: routine ECG analysis; type: in vivo; conditions: for QT / QTc / HR / QRS: Male
Description: Routine ECG analysis was performed at each scheduled time (day 1 after administration, d01 and d02 after administration, 1 and 24 h after administration on day 1, before administration, and 1 and 24 h after administration on day 26 and day 56). P-wave, R-wave, T-wave, P-R intervals, Q-T intervals, QRS duration and heart rate were recorded by an ECG system using derivation DII (ECG-6951E, Shanghai, China).

[2] = system: cynomolgus monkeys; assay: 4-week safety study: urinalysis; type: in vivo; conditions: male and female monkeys
Description: For the monkey study, at quarantine period (twice, d01 and d02), day 14, day 28 and day 56, the following parameters were measured as shown in Table 20. (1) Hematological and coagulation index examination were performed using a Bayer ADVIA2120 (Germany) and a Sysmex CA-1500 (Japan). (2) The serum biochemical examination was assessed using a HITACHI 7080 automated analyzer (Japan) and an Easylyte PLUS electrolyte analyzer (MEDICA, America). (3) The 24-h pooled urine of each animal was collected by a tray under each cage. Urinalysis was carried out using Uritest-300 (China). (4) The 24-h pooled faeces of each monkey were collected by a tray under each cage. Fecal occult blood was detected. (5) ACCESS 2 Chemiluminescence immunoassay was used for myocardial troponin (TropI, non-GLP) test.

## COC(=O)NCCCn1nc([C@@H](C)N(C(=O)[C@H]2CNCCO2)C2CC2)c2ccc(C)nc21 [compound of Formula I]
[1]; 20 mg/kg, 1 h (d 1)
  QT: 158.0 ± 11.0 ms
  QTc: 241.4 ± 12.3 ms
[1]; 20 mg/kg, 1 h (d 26)
  HR: 260.0 ± 12.4 bmp
  QRS: 36.0 ± 5.5 ms
  QT: 146.0 ± 11.4 ms
  QTc: 237.8 ± 16.3 ms
[1]; 20 mg/kg, 24 h (d 1)
  HR: 206.1 ± 20.7 bmp
  QRS: 28.0 ± 4.5 ms
  QT: 166.0 ± 8.9 ms
  QTc: 250.0 ± 10.4 ms
[1]; 20 mg/kg, 24 h (d 26)
  HR: 264.9 ± 16.1 bmp
  QRS: 34.0 ± 5.5 ms
  QT: 146.0 ± 11.4 ms
  QTc: 239.2 ± 14.8 ms
[1]; 20 mg/kg, d0
  HR: 198.4 ± 16.5 bmp
  QRS: 34.0 ± 8.9 ms
  QT: 164.0 ± 11.4 ms
  QTc: 243.9 ± 11.7 ms
[1]; 20 mg/kg, d 56
  HR: 225.6 ± 2.4 bmp
  QRS: 30.0 ± 0.0 ms
  QT: 145.0 ± 7.1 ms
  QTc: 225.4 ± 10.2 ms
[1]; 100 mg/kg, 1 h (d 1)
  HR: 230.0 ± 19.9 bmp
  QRS: 38.0 ± 4.5 ms
  QT: 156.0 ± 11.4 ms
  QTc: 243.8 ± 16.5 ms
[1]; 100 mg/kg, 1 h (d 26)
  HR: 256.9 ± 16.7 bmp
  QRS: 36.0 ± 5.5 ms
  QT: 144.0 ± 5.5 ms
  QTc: 233.8 ± 12.2 ms
[1]; 100 mg/kg, 24 h (d 1)
  HR: 208.2 ± 10.4 bmp
  QRS: 36.0 ± 8.9 ms
  QT: 162.0 ± 11.0 ms
  QTc: 245.3 ± 18.6 ms
[1]; 100 mg/kg, 24 h (d 26)
  HR: 260.7 ± 9.1 bmp
  QRS: 36.0 ± 5.5 ms
  QT: 144.0 ± 8.9 ms
  QTc: 234.9 ± 13.9 ms
[1]; 100 mg/kg, d0
  HR: 215.4 ± 11.2 bmp
  QRS: 32.0 ± 8.4 ms
  QT: 154.0 ± 16.7 ms
  QTc: 235.6 ± 24.5 ms
[1]; 100 mg/kg, d 56
  HR: 225.6 ± 2.4 bmp
  QRS: 35.0 ± 7.1 ms
  QT: 165.0 ± 7.1 ms
  QTc: 256.6 ± 11.9 ms
[1]; 450 mg/kg, 1 h (d 1)
  HR: 217.4 ± 3.2 bmp
  QRS: 36.7 ± 5.8 ms
  QT: 170.0 ± 10.0 ms
  QTc: 261.1 ± 16.0 ms
[1]; 450 mg/kg, 1 h (d 26)
  HR: 247.6 ± 22.6 bmp
  QRS: 36.0 ± 13.4 ms
  QT: 150.0 ± 17.3 ms
  QTc: 240.0 ± 23.7 ms
[1]; 450 mg/kg, 24 h (d 1)
  HR: 211.0 ± 15.9 bmp
  QRS: 32.0 ± 4.5 ms
  QT: 166.0 ± 8.9 ms
  QTc: 252.1 ± 9.4 ms
[1]; 450 mg/kg, 24 h (d 26)
  HR: 210.4 ± 49.9 bmp
  QRS: 38.0 ± 4.5 ms
  QT: 158.0 ± 13.0 ms
  QTc: 237.7 ± 12.2 ms
[1]; 450 mg/kg, d0
  HR: 214.3 ± 17.7 bmp
  QRS: 34.0 ± 5.5 ms
  QT: 156.0 ± 5.5 ms
  QTc: 238.2 ± 7.2 ms
[1]; 450 mg/kg, d 56
  HR: 203.3 ± 15.5 bmp
  QRS: 35.0 ± 7.1 ms
  QT: 160.0 ± 0.0 ms
  QTc: 240.2 ± 6.1 ms
[1]; high-dose females, 1 h after administration on d1 and d26
  QRS intervals: Prolonged
[1]; one high-dose male (animal No. 411), 1 h after administration on d26, prolonged
  QRS intervals: 60 ms
[1]; one high-dose male, 1 h after administration on d26
  Sinus arrhythmia: Sinus arrhythmia was observed in one high-dose male
[1]; one mid-dose female (animal No. 303), 1 h after administration on d26, prolonged
  QTc intervals: 296 ms
[2]
  urinalysis parameters: No significant changes
